In brackets after ≈: the same amount, converted by molar mass. Read-outs that look alike come from different tables or passages of the source.
Assay: Aqueous solubility of INX-315
Assay type: physicochemical

SMILES: NS(=O)(=O)c1ccc(Nc2ncc3cc4n(c3n2)C2(CCCCC2)C(=O)NN4)cc1 [INX-315]
- solubility (0.01 N HCl, simulated gastric fluid, 0.01N HCl, read-out: Dissolved Drug Solubility): 269 ± 92 µg/mL (≈ 629 µM)
- solubility (50 mM Na acetate, aqueous buffer, 50 mM Na Acetate, read-out: Total Drug Solubility): 19 ± 7 µg/mL (≈ 44.4 µM)
- solubility (0.224% SIF in PBS, fassif, 0.224% SIF in PBS, read-out: Dissolved Drug Solubility): 5.3 ± 0.4 µg/mL (≈ 12.4 µM)
- solubility (0.224% SIF in PBS, fassif, 0.224% SIF in PBS, read-out: Total Drug Solubility): 6.1 ± 0.4 µg/mL (≈ 14.3 µM)
- solubility (0.5% SIF in PBS, fassgf or other biorelevant, 0.5% SIF in PBS, read-out: Dissolved Drug Solubility): 11 ± 1 µg/mL (≈ 25.7 µM)
- solubility (0.5% SIF in PBS, fassgf or other biorelevant, 0.5% SIF in PBS, read-out: Total Drug Solubility): 15 ± 0.2 µg/mL (≈ 35.1 µM)
- solubility (0.5% Tween-80 in PBS, aqueous with cosolvent or surfactant or cyclodextrin, 0.5% Tween-80 in PBS, read-out: Dissolved Drug Solubility): 59 ± 8 µg/mL (≈ 138 µM)
- solubility (0.5% Tween-80 in PBS, aqueous with cosolvent or surfactant or cyclodextrin, 0.5% Tween-80 in PBS, read-out: Total Drug Solubility): 55 ± 1 µg/mL (≈ 129 µM)
- solubility (1% SIF in PBS, fassgf or other biorelevant, 1% SIF in PBS, read-out: Dissolved Drug Solubility): 16.3 ± 0.1 µg/mL (≈ 38.1 µM)
- solubility (1% SIF in PBS, fassgf or other biorelevant, 1% SIF in PBS, read-out: Total Drug Solubility): 16.4 ± 0.1 µg/mL (≈ 38.4 µM)
- solubility (1% SLS in water, aqueous with cosolvent or surfactant or cyclodextrin, 1% SLS in H2O, read-out: Dissolved Drug Solubility): 40 ± 1 µg/mL (≈ 93.6 µM)
- solubility (5% TPGS in PBS, aqueous with cosolvent or surfactant or cyclodextrin, 5% TPGS in PBS, read-out: Dissolved Drug Solubility): 313 ± 21 µg/mL (≈ 732 µM)
- solubility (5% TPGS in PBS, aqueous with cosolvent or surfactant or cyclodextrin, 5% TPGS in PBS, read-out: Total Drug Solubility): 305 ± 10 µg/mL (≈ 713 µM)
- solubility (PBS/Blank FaSSIF, aqueous buffer, PBS/Blank FaSSIF, read-out: Total Drug Solubility): 17 ± 2 µg/mL (≈ 39.8 µM)
- BCS classification (high permeability, low solubility): BCS-2
- solubility (water, H2O, read-out: Total Drug Solubility): 61 ± 14 µg/mL (≈ 143 µM)

Source: patent US20260041640A1 (INCYCLIX BIO, LLC, priority 2023, published 2026)
